Experimental data taken from ChEMBL document CHEMBL1134142, “Prodrugs of 3-amido bearing pseudomycin analogues: novel antifungal agents” (Bioorg Med Chem Lett, 2001).
In brackets after ≈: the same amount, converted by molar mass. Bridge positions count the residues as written; N and C are the ends. Square brackets hold non-standard residues; d marks the D form. Side chains are listed from the residue outwards. Peptide text beside a SMILES is read from it. * marks the point of attachment. Tetradecanoyl(3R-OH) = CCCCCCCCCCC[C@@H](O)CC(=O)*; Asp(3S-OH) = N[C@H](C(=O)O)[C@H](O)C(=O)O; Thr(4-Cl) = N[C@H](C(=O)O)[C@H](O)CCl; aThr = C[C@H](O)[C@H](N)C(=O)O; dDab = NCC[C@@H](N)C(=O)O; NHCH2CH2NMe2 = CN(C)CCN*; Dab = NCC[C@H](N)C(=O)O; Dhb = C/C=C(\N)C(=O)O; X1 = CCN(CC)CCN*; NHcPr = C1CC1N*

Tests used:
Mus musculus [1] = species: Mus musculus; assay: Maximum tolerated dose against tail vein irritation determined by dose elevation study; type: functional
[2] = The compound was tested for toxicity in tail vein irritation model; No; conditions: mouse
Mus musculus [3] = assay: Compound was evaluated in vivo for its effective dose against Murine candidiasis; type: functional
Aspergillus fumigatus = assay: Minimum inhibitory concentration against Aspergillus fumigatus; type: functional
Candida albicans = assay: Minimum inhibitory concentration against Candida albicans.; type: functional
Cryptococcus neoformans [4] = assay: Minimum inhibitory concentration against Cryptococcus neoformans.
Mus musculus [5] = assay: (§1) Compound was evaluated in vivo for its effective dose against cryptococosis; type: functional
[6] = The compound was tested for toxicity in tail vein irritation model; Yes; conditions: mouse
Cryptococcus neoformans [7] = assay: as §1; type: functional

Structure (SMILES)	Dose elevation (Mus musculus [1]) [mg/kg]	Toxicity [2]	ED50 (Mus musculus [3]) [mg/kg]	MIC (Aspergillus fumigatus) [µg/mL]	MIC (Candida albicans) [µg/mL]	MIC (Cryptococcus neoformans [4]) [µg/mL]	ED50 (Mus musculus [5]) [mg/kg]	Toxicity [6]	ED50 (Cryptococcus neoformans [7]) [mg/kg]
C/C=C1\NC(=O)[C@H]([C@H](C)O)NC(=O)[C@H](CCNC(=O)OCOC(=O)C(C)C)NC(=O)[C@H](CCCCNC(=O)OCOC(=O)C(C)C)NC(=O)[C@H](CC(=O)NCCN(C)C)NC(=O)[C@@H](CCNC(=O)OCOC(=O)C(C)C)NC(=O)[C@@H](NC(=O)C[C@H](O)CCCCCCCCCCC)COC(=O)[C@H]([C@H](O)CCl)NC(=O)[C@H]([C@H](O)C(=O)O)NC1=O	125	Not toxic	6.6	–	–	–	–	–	–
C/C=C1\NC(=O)[C@H]([C@H](C)O)NC(=O)[C@H](CCNC(=O)OCOC(=O)C(C)C)NC(=O)[C@H](CCCCNC(=O)OCOC(=O)C(C)C)NC(=O)[C@H](CC(N)=O)NC(=O)[C@@H](CCNC(=O)OCOC(=O)C(C)C)NC(=O)[C@@H](NC(=O)C[C@H](O)CCCCCCCCCCC)COC(=O)[C@H]([C@H](O)CCl)NC(=O)[C@H]([C@H](O)C(=O)O)NC1=O	–	Not toxic	–	20 (≈ 12.2 µM)	20 (≈ 12.2 µM)	20 (≈ 12.2 µM)	–	–	–
C/C=C1\NC(=O)[C@H]([C@H](C)O)NC(=O)[C@H](CCNC(=O)OCOC(=O)C(C)(C)C)NC(=O)[C@H](CCCCNC(=O)OCOC(=O)C(C)(C)C)NC(=O)[C@H](CC(=O)NCCN(C)C)NC(=O)[C@@H](CCNC(=O)OCOC(=O)C(C)(C)C)NC(=O)[C@@H](NC(=O)C[C@H](O)CCCCCCCCCCC)COC(=O)[C@H]([C@H](O)CCl)NC(=O)[C@H]([C@H](O)C(=O)O)NC1=O	–	Not toxic	< 5	–	–	–	0.44	–	–
C/C=C1\NC(=O)[C@H]([C@H](C)O)NC(=O)[C@H](CCNC(=O)OCOC(=O)C(C)C)NC(=O)[C@H](CCCCNC(=O)OCOC(=O)C(C)C)NC(=O)[C@H](CC(=O)NC(C)(C)CC)NC(=O)[C@@H](CCNC(=O)OCOC(=O)C(C)C)NC(=O)[C@@H](NC(=O)C[C@H](O)CCCCCCCCCCC)COC(=O)[C@H]([C@H](O)CCl)NC(=O)[C@H]([C@H](O)C(=O)O)NC1=O	–	Not toxic	–	20 (≈ 11.7 µM)	20 (≈ 11.7 µM)	20 (≈ 11.7 µM)	–	–	–
C/C=C1\NC(=O)[C@H]([C@H](C)O)NC(=O)[C@H](CCN)NC(=O)[C@H](CCCCN)NC(=O)[C@H](CC(=O)NCCN(CC)CC)NC(=O)[C@@H](CCN)NC(=O)[C@@H](NC(=O)C[C@H](O)CCCCCCCCCCC)COC(=O)[C@H]([C@H](O)CCl)NC(=O)[C@H]([C@H](O)C(=O)O)NC1=O ({Tetradecanoyl(3R-OH)}-S[dDab]D(X1)K[Dab][aThr][Dhb][Asp(3S-OH)][Thr(4-Cl)]; ester 1-C)	–	–	–	10 (≈ 7.66 µM)	10 (≈ 7.66 µM)	< 0.01	–	Active	–
C/C=C1\NC(=O)[C@H]([C@H](C)O)NC(=O)[C@H](CCN)NC(=O)[C@H](CCCCN)NC(=O)[C@H](CC(=O)NCC(=O)OC)NC(=O)[C@@H](CCN)NC(=O)[C@@H](NC(=O)C[C@H](O)CCCCCCCCCCC)COC(=O)[C@H]([C@H](O)CCl)NC(=O)[C@H]([C@H](O)C(=O)O)NC1=O ({Tetradecanoyl(3R-OH)}-S[dDab]D([Gly-OMe])K[Dab][aThr][Dhb][Asp(3S-OH)][Thr(4-Cl)]; ester 1-C)	<50	Not toxic	< 5	–	–	–	2.9	–	–
C/C=C1\NC(=O)[C@H]([C@H](C)O)NC(=O)[C@H](CCNC(=O)OCOC(=O)C(C)(C)C)NC(=O)[C@H](CCCCNC(=O)OCOC(=O)C(C)(C)C)NC(=O)[C@H](CC(=O)NC2CC2)NC(=O)[C@@H](CCNC(=O)OCOC(=O)C(C)(C)C)NC(=O)[C@@H](NC(=O)C[C@H](O)CCCCCCCCCCC)COC(=O)[C@H]([C@H](O)CCl)NC(=O)[C@H]([C@H](O)C(=O)O)NC1=O	–	Not toxic	< 5	–	–	–	–	–	–
C/C=C1\NC(=O)[C@H]([C@H](C)O)NC(=O)[C@H](CCN)NC(=O)[C@H](CCCCN)NC(=O)[C@H](CC(N)=O)NC(=O)[C@@H](CCN)NC(=O)[C@@H](NC(=O)C[C@H](O)CCCCCCCCCCC)COC(=O)[C@H]([C@H](O)CCl)NC(=O)[C@H]([C@H](O)C(=O)O)NC1=O ({Tetradecanoyl(3R-OH)}-S[dDab]NK[Dab][aThr][Dhb][Asp(3S-OH)][Thr(4-Cl)]; ester 1-C)	–	–	–	10 (≈ 8.29 µM)	2.5 (≈ 2.07 µM)	< 0.01	–	Active	–
C/C=C1\NC(=O)[C@H]([C@H](C)O)NC(=O)[C@H](CCN)NC(=O)[C@H](CCCCN)NC(=O)[C@H](CC(=O)O)NC(=O)[C@@H](CCN)NC(=O)[C@@H](NC(=O)C[C@H](O)CCCCCCCCCCC)COC(=O)[C@H]([C@H](O)CCl)NC(=O)[C@H]([C@H](O)C(=O)O)NC1=O [PSEUDOMYCIN B] ({Tetradecanoyl(3R-OH)}-S[dDab]DK[Dab][aThr][Dhb][Asp(3S-OH)][Thr(4-Cl)]; ester 1-C)	20	–	–	20 (≈ 16.6 µM)	0.625 (≈ 0.517 µM)	0.01 (≈ 0.00828 µM)	–	Active	1.8
C/C=C1\NC(=O)[C@H]([C@H](C)O)NC(=O)[C@H](CCNC(=O)OCOC(=O)C(C)C)NC(=O)[C@H](CCCCNC(=O)OCOC(=O)C(C)C)NC(=O)[C@H](CC(=O)NC2CC2)NC(=O)[C@@H](CCNC(=O)OCOC(=O)C(C)C)NC(=O)[C@@H](NC(=O)C[C@H](O)CCCCCCCCCCC)COC(=O)[C@H]([C@H](O)CCl)NC(=O)[C@H]([C@H](O)C(=O)O)NC1=O	125	Not toxic	< 5	–	–	–	0.56	–	–
C/C=C1\NC(=O)[C@H]([C@H](C)O)NC(=O)[C@H](CCN)NC(=O)[C@H](CCCCN)NC(=O)[C@H](CC(=O)NC2CC2)NC(=O)[C@@H](CCN)NC(=O)[C@@H](NC(=O)C[C@H](O)CCCCCCCCCCC)COC(=O)[C@H]([C@H](O)CCl)NC(=O)[C@H]([C@H](O)C(=O)O)NC1=O ({Tetradecanoyl(3R-OH)}-S[dDab]D(NHcPr)K[Dab][aThr][Dhb][Asp(3S-OH)][Thr(4-Cl)]; ester 1-C)	50	Not toxic	< 5	–	–	–	2.9	–	–
C/C=C1\NC(=O)[C@H]([C@H](C)O)NC(=O)[C@H](CCN)NC(=O)[C@H](CCCCN)NC(=O)[C@H](CC(=O)NC(C)(C)CC)NC(=O)[C@@H](CCN)NC(=O)[C@@H](NC(=O)C[C@H](O)CCCCCCCCCCC)COC(=O)[C@H]([C@H](O)CCl)NC(=O)[C@H]([C@H](O)C(=O)O)NC1=O	–	–	–	> 20	0.312 (≈ 0.244 µM)	< 0.01	–	Active	–
C/C=C1\NC(=O)[C@H]([C@H](C)O)NC(=O)[C@H](CCN)NC(=O)[C@H](CCCCN)NC(=O)[C@H](CC(=O)NCCN(C)C)NC(=O)[C@@H](CCN)NC(=O)[C@@H](NC(=O)C[C@H](O)CCCCCCCCCCC)COC(=O)[C@H]([C@H](O)CCl)NC(=O)[C@H]([C@H](O)C(=O)O)NC1=O ({Tetradecanoyl(3R-OH)}-S[dDab]D(NHCH2CH2NMe2)K[Dab][aThr][Dhb][Asp(3S-OH)][Thr(4-Cl)]; ester 1-C)	50	Not toxic	< 5	–	–	–	2.5	–	–
C/C=C1\NC(=O)[C@H]([C@H](C)O)NC(=O)[C@H](CCNC(=O)OCOC(=O)C(C)C)NC(=O)[C@H](CCCCNC(=O)OCOC(=O)C(C)C)NC(=O)[C@H](CC(=O)NCCN(CC)CC)NC(=O)[C@@H](CCNC(=O)OCOC(=O)C(C)C)NC(=O)[C@@H](NC(=O)C[C@H](O)CCCCCCCCCCC)COC(=O)[C@H]([C@H](O)CCl)NC(=O)[C@H]([C@H](O)C(=O)O)NC1=O	–	Not toxic	–	20 (≈ 11.5 µM)	20 (≈ 11.5 µM)	20 (≈ 11.5 µM)	–	–	–
C/C=C1\NC(=O)[C@H]([C@H](C)O)NC(=O)[C@H](CCNC(=O)OCOC(=O)C(C)(C)C)NC(=O)[C@H](CCCCNC(=O)OCOC(=O)C(C)(C)C)NC(=O)[C@H](CC(=O)NCC(=O)OC)NC(=O)[C@@H](CCNC(=O)OCOC(=O)C(C)(C)C)NC(=O)[C@@H](NC(=O)C[C@H](O)CCCCCCCCCCC)COC(=O)[C@H]([C@H](O)CCl)NC(=O)[C@H]([C@H](O)C(=O)O)NC1=O	125	Not toxic	< 5	–	–	–	> 5	–	–
C/C=C1\NC(=O)[C@H]([C@H](C)O)NC(=O)[C@H](CCNC(=O)OCOC(=O)C(C)C)NC(=O)[C@H](CCCCNC(=O)OCOC(=O)C(C)C)NC(=O)[C@H](CC(=O)NCC(=O)OC)NC(=O)[C@@H](CCNC(=O)OCOC(=O)C(C)C)NC(=O)[C@@H](NC(=O)C[C@H](O)CCCCCCCCCCC)COC(=O)[C@H]([C@H](O)CCl)NC(=O)[C@H]([C@H](O)C(=O)O)NC1=O	125	Not toxic	< 5	–	–	–	–	–	–
